Reference: US10441681B2, “Materials and methods for nerve grafting” (University of Florida Research Foundation, Inc., priority 2001, dated 2019)
“Also recorded” adds a separate entry of the source.

What was measured:
[1] = test system: Schwann cell cultures; assay: Treatment of isolated Schwann cell cultures (toxicity); format: cell-based
[2] = test system: embryonic chick DRG neurons; assay: Cryoculture assay of nerve explant cultures (predegeneration); format: cell-based; conditions: nerves cultured 2 days, 2% serum, in the presence of GM6001 (50 μM)
[3] = test system: MMP; assay: In situ zymography of nerve explants (net gelatinolytic activity); format: biochemical, rat; conditions: nerves cultured 2-day, 2% serum in the presence of GM6001
Protocol: In the control condition, the MMP inhibitor EDTA (30 mM) was included in the reaction buffer. After incubation for 24 h at 37° C., the sections were rinsed with PBS and fixed with 4% paraformaldehyde in phosphate buffer. The sections were rinsed with water and mounted using Citifluor.

CNC(=O)[C@H](Cc1c[nH]c2ccccc12)NC(=O)[C@@H](CC(=O)NO)CC(C)C [GM6001]
toxicity [1]: very low toxicity
increase in mean neurite length over uncultured control nerves [2]: 14%
gelatinolytic activity in nerve explants [3]: nearly undetectable; also recorded: markedly decreased
